Tests used:
[1] = test system: isolierte linke Meerschweinchenvorhof; test: Isolated, electrically stimulated left guinea pig atrium: refractory period, contraction force and excitability; type: cell-based, Meerschweinchen; settings: for Hemmung der Kontraktionskraft / Verlängerung der RP / inhibition at 10 µM / percent prolongation of refractory period at 10 µM: concentration not given; for ERP / EKK: ratio of prolongation of RP to inhibition of contraction force; for inhibition at 100 µM / inhibition at 10 µM: Cavia porcellus, read-out: Hemmung der Kontraktionskraft
Source text: Für das Screening wurde […]. Die Vorhöfe wurden durch Rechteckimpulse ( ∼ 3 msec) mit einer Basisfrequenz von 2 Hz […]. Nun wurde mittels eines Extrastimulus, dessen […] und ohne Verbindung bestimmt. […] Um zwischen Na-antagonistischen und anderen Wirkungen unterscheiden zu […] RP, die Kontraktionskraft und die Erregbarkeit des […] untersucht.

[2] = test system: teilweise depolarisierten Papillarmuskel; test: Partially depolarised papillary muscle (extracellular potassium raised about 4-fold): mechanism of the negative inotropic effect; type: cell-based; settings: partially depolarised membranes; cause of the negative inotropic effect; result in words
Source text: Weitere Untersuchungen wurden am teilweise depolarisierten Papillarmuskel durchgeführt, um zwischen der negativ inotropen Wirkung, welche auf Blockade der schnellen Na⁺-Kanälchen und einer, die auf anderen Mechanismen beruht, zu unterscheiden. Im Versuch wurde die teilweise Depolarisation der Herzmuskelzellmembran durch Erhöhung der extrazellulären Kalium-Konzentration auf das ca. 4-fache erreicht.

[3] = 10 µM according to b47, atrium stimulated at 2 Hz, mean ± spread
[4] = 100 µM, atrium stimulated at 2 Hz, mean ± spread, read-out: Verlängerung der RP
[5] = 100 µM, atrium stimulated at 2 Hz, mean ± spread
[6] = 10 µM according to b47, atrium stimulated at 2 Hz, mean ± spread, read-out: Verlängerung der RP

Row | Compound | Hemmung der Kontraktionskraft [1, 3] | Verlängerung der RP [1, 3] | ERP / EKK ([1]; 10 µM according to b47) | inhibition at 100 µM [1, 5] | inhibition at 10 µM [1, 3] | percent prolongation of refractory period at 10 µM [1, 6] | other results
1 | 1-[4-Methyl-3-(2-hydroxy-3-sek.butylaminopropoxy)-2-thienyl]-3-phenyl-1-propanon-chlorhydrat [LG 84-6-08] | 65 ± 4,0% | 129 ± 11,0% | 2,0 | – | – | – | –
2 | C=C[C@H]1CN2CC[C@H]1C[C@@H]2[C@@H](O)c1ccnc2ccc(OC)cc12 [Chinidin, reference compound] | – | – | – | 77 ± 4% | – | – | activation at 100 µM [1, 4]: > 161%
3 | CCC(C)(C)NCC(O)COc1c(C)csc1C(=O)CCc1ccccc1.Cl (stereo not drawn) [LG 84-6-07, 1-[3-(2-Hydroxy-3-tert.pentylaminopropoxy)-4-methyl-2-thienyl]-3-phenyl-1-propanon-hydrochlorid] | – | – | 1,3 | – | 52 ± 4% | 66 ± 13% | negativ incorope Komponente [2]: nur durch den Na⁺-Antagonismus hervogerufen; Verhältnis zwischen der Verlängerung der Refraktärperiode und der gleichzeitig beobachteten Kontraktionskraftsenkung ([1]; comparison among the tested antiarrhythmics, result in words): am größten; Dosen für Verlängerung der Refraktärperiode gegenüber Senkung der Kontraktionskraft ([1]; doses for prolonging the refractory period compared with doses for lowering contraction force, result in words): mit wesentlich kleineren Dosen erzielt; Erregbarkeit des Vorhofes ([1]; result in words): Verminderung der Erregbarkeit des Vorhofes
4 | 1-[3-(2-Hydroxy-3-(4-methyl)-1-piperidinyl)-propoxy)-4-methyl-2-thienyl]-3-phenyl-1-propanon-hydrochlorid [LG 84-6-11] | 59 ± 3,3% | 157 ± 10,0% | 2,7 | – | – | – | –
5 | CCN(CC)CC(=O)Nc1c(C)cccc1C [Lidocain, reference compound] | – | – | – | 17 ± 5% | – | – | percent prolongation of refractory period at 100 µM [1, 4]: 63 ± 6%; ERP / EKK ([1]; 100 µM): 3,7
6 | Cc1csc(C(=O)CCc2ccccc2)c1OCC(O)CNCC(C)(C)C.Cl (stereo not drawn) [LG 84-6-09, 1-[3-(2-Hydroxy-3-(2,2-dimethylpropylamino)-propoxy)-4-methyl-2-thienyl]-3-phenyl-1-propanon-hydrochlorid] | – | – | 3,0 | – | 37 ± 4.5% | 112 ± 18% | –

Reference: patent EP0233173A1, “1-[3-(2-Hydroxy-3-alkylamino-propoxy)-2-thienyl]-3-phenyl-1-propanones and their acid addition salts, process for their preparation and pharmaceutical compositions containing them” (Laevosan-Gesellschaft m.b.H., priority 1986, dated 1987)
